Literature values as cited in patent US20250332178A1, “METHODS OF TREATING MYCOBACTERIAL INFECTIONS USING TETRACYCLINE COMPOUNDS” (priority 2018, published 2025).

Test system: M. abscessus
Conditions: strains of M. abscessus; Wallace et al.; cited from earlier work

Compound: CN(C)[C@@H]1C(=O)C(C(N)=O)=C(O)[C@@]2(O)C(=O)C3=C(O)c4c(O)cccc4[C@@](C)(O)[C@H]3C[C@@H]12 [tetracycline]
- in vitro activity (in words): very low activity
